# Data as given in patent publication US20160198705A1, “APPLICATION OF BISPHENOL SALT IN PREPARING DISINFECTANT USED FOR STERILIZATION OR FORMALDEHYDE REMOVAL” (NINGBO YUCHEN ENVIROCLEAN TECH CO., LTD., priority 2013, published 2016).
# What was measured:
# [1] = test system: Staphylococcus aureus; assay: Kirby-Bauer diffusion detection of sterilization capability (zone without bacterial growth around the filter paper); format: cell-based; conditions: for sterilization effect without oxygen ventilation (diameter, mm): pH 10, no ventilation of oxygen
# [2] = test system: Staphylococcus aureus; assay: as above; format: cell-based
# Protocol: In catalyst screening, Staphylococcus aureus was used as the microorganisms, and a trypsin soybean agar was used as a culture medium. The material powder to be screened was prepared into a homogeneous mixture solution by pure water in a 5% weight/volume ratio (i.e., 5 g powder/100 mL water) (in rare cases of low solubility, firstly dissolved with a small amount of glycerol, then diluted with pure water), then immersed with a neutral precise filtration filter paper of 5 mm diameter for about 10 seconds, then placed into a Kirby-Bauer diffusion detection plate. A Kirby-Bauer diffusion detection plate was placed in a sealed glass cover, and the air was provided into the glass cover at a speed of about 10 liters per minute. The sterilizing capability of the catalyst was measured by the diameter of the zone without bacterial growth around the filter paper.
# A variety of bisphenol salts were respectively prepared into a water solution with a mass concentration being 5%, and the pH was controlled to 10. The sterilization capability was still detected by Kirby-Bauer diffusion detection method in which Staphylococcus aureus was […] used as the microorganisms, respectively including two cases of no ventilation of oxygen and ventilation of oxygen. When oxygen was ventilated, the condition for oxygen ventilation was the same, the temperature was room temperature (25[…]) and 37[…].
# The sterilization capability was detected by Kirby-Bauer diffusion detection method in which Staphylococcus aureus was still used as the microorganisms, and the condition for oxygen ventilation was identical, the temperature was room temperature (25[…]) and 37[…].
# Ortho-bisphenol potassium was respectively prepared to form water solutions with a concentration of 5% and pH value of 6, 7, 8, 8.5, 9, 9.5, 10, 10.5, 11, 11.5, 12. The sterilization capability was detected by Kirby-Bauer diffusion detection method in which Staphylococcus aureus was still used as the microorganisms, the condition for oxygen ventilation was identical, the temperature was room temperature (25[…]) and 37[…].
# [3] = 5% water solution, pH 10, oxygen ventilation
# [4] = 5% weight/volume in pure water, air provided at about 10 liters per minute
# [5] = concentration 0.5%, pH 10, oxygen ventilation
# [6] = concentration 1.0%, pH 10, oxygen ventilation
# [7] = concentration 2.0%, pH 10, oxygen ventilation
# [8] = concentration 5%, pH 10, oxygen ventilation
# [9] = concentration 10%, pH 10, oxygen ventilation
# [10] = concentration 15%, pH 10, oxygen ventilation
# [11] = concentration 20%, pH 10, oxygen ventilation
# [12] = pH 6, concentration 5%, oxygen ventilation
# [13] = pH 7, concentration 5%, oxygen ventilation
# [14] = pH 8, concentration 5%, oxygen ventilation
# [15] = pH 8.5, concentration 5%, oxygen ventilation
# [16] = pH 9, concentration 5%, oxygen ventilation
# [17] = pH 9.5, concentration 5%, oxygen ventilation
# [18] = pH 10.5, concentration 5%, oxygen ventilation
# [19] = pH 11, concentration 5%, oxygen ventilation
# [20] = pH 11.5, concentration 5%, oxygen ventilation
# [21] = pH 12, concentration 5%, oxygen ventilation
# [22] = pH 10, concentration 5%, oxygen ventilation
smiles,measurement,setting,value
[Na+].[Na+].[O-]c1ccccc1Oc1ccccc1[O-],"sterilization effect without oxygen ventilation (diameter, mm)",[1]; 5% water solution,5 mm
same,"sterilization effect at 25[…] (diameter, mm)",[1]; [3],17 mm
same,"sterilization effect at 37[…] (diameter, mm)",[1]; [3],19 mm
"[Cl-].[Na+] [sodium chloride, reference compound]",sterilization effect,[1]; [4],essentially had no effect
[K+].[K+].[O-]c1ccccc1-c1ccccc1[O-] [ortho-bisphenol potassium],"sterilization effect without oxygen ventilation (diameter, mm)",[1]; 5% water solution,3 mm
same,"sterilization effect at 25[…] (diameter, mm)",[1]; [3],18 mm
same,"sterilization effect at 37[…] (diameter, mm)",[1]; [3],19 mm
same,"sterilization effect at 25[…] (diameter, mm)",[1]; [5],8 mm
same,"sterilization effect at 37[…] (diameter, mm)",[1]; [5],9 mm
same,"sterilization effect at 37[…] (diameter, mm)",[1]; [6],10 mm
same,"sterilization effect at 25[…] (diameter, mm)",[1]; [7],14 mm
same,"sterilization effect at 37[…] (diameter, mm)",[1]; [7],16 mm
same,"sterilization effect at 25[…] (diameter, mm)",[1]; [8],18 mm
same,"sterilization effect at 37[…] (diameter, mm)",[1]; [9],20 mm
same,"sterilization effect at 25[…] (diameter, mm)",[1]; [10],19 mm
same,"sterilization effect at 37[…] (diameter, mm)",[1]; [10],18 mm
same,"sterilization effect at 25[…] (diameter, mm)",[1]; [11],17 mm
same,"sterilization effect at 37[…] (diameter, mm)",[1]; [11],19 mm
same,"sterilization effect at 37[…] (diameter, mm)",[1]; [12],5 mm
same,"sterilization effect at 25[…] (diameter, mm)",[1]; [13],5 mm
same,"sterilization effect at 37[…] (diameter, mm)",[1]; [13],6 mm
same,"sterilization effect at 25[…] (diameter, mm)",[1]; [14],8 mm
same,"sterilization effect at 37[…] (diameter, mm)",[1]; [14],9 mm
same,"sterilization effect at 25[…] (diameter, mm)",[1]; [15],13 mm
same,"sterilization effect at 37[…] (diameter, mm)",[1]; [16],16 mm
same,"sterilization effect at 25[…] (diameter, mm)",[1]; [17],16 mm
same,"sterilization effect at 37[…] (diameter, mm)",[1]; [17],16 mm
same,"sterilization effect at 25[…] (diameter, mm)",[1]; [18],18 mm
same,"sterilization effect at 37[…] (diameter, mm)",[1]; [18],20 mm
same,"sterilization effect at 25[…] (diameter, mm)",[1]; [19],18 mm
same,"sterilization effect at 37[…] (diameter, mm)",[1]; [19],19 mm
same,"sterilization effect at 25[…] (diameter, mm)",[1]; [20],20 mm
same,"sterilization effect at 37[…] (diameter, mm)",[1]; [20],19 mm
same,"sterilization effect at 25[…] (diameter, mm)",[1]; [21],20 mm
same,"sterilization effect at 37[…] (diameter, mm)",[1]; [21],20 mm
same,"sterilization effect at 25[…] (diameter, mm)",[2]; [6],11 mm
same,"sterilization effect at 37[…] (diameter, mm)",[2]; [8],19 mm
same,"sterilization effect at 25[…] (diameter, mm)",[2]; [9],20 mm
same,"sterilization effect at 25[…] (diameter, mm)",[2]; [12],5 mm
same,"sterilization effect at 37[…] (diameter, mm)",[2]; [15],14 mm
same,"sterilization effect at 25[…] (diameter, mm)",[2]; [16],15 mm
same,"sterilization effect at 25[…] (diameter, mm)",[2]; [22],19 mm
same,"sterilization effect at 37[…] (diameter, mm)",[2]; [22],20 mm
O=C(O)c1ccc(-c2ccccc2[O-])c([O-])c1.[K+].[K+],"sterilization effect without oxygen ventilation (diameter, mm)",[1]; 5% water solution,2 mm
same,"sterilization effect at 25[…] (diameter, mm)",[1]; [3],19 mm
same,"sterilization effect at 37[…] (diameter, mm)",[1]; [3],19 mm
[K+].[K+].[O-]c1cccc(Oc2cccc([O-])c2)c1,"sterilization effect without oxygen ventilation (diameter, mm)",[1]; 5% water solution,6 mm
same,"sterilization effect at 25[…] (diameter, mm)",[1]; [3],16 mm
same,"sterilization effect at 37[…] (diameter, mm)",[1]; [3],18 mm
[K+].[K+].[O-]c1ccccc1-c1cc(Cl)ccc1[O-],"sterilization effect without oxygen ventilation (diameter, mm)",[1]; 5% water solution,3 mm
same,"sterilization effect at 25[…] (diameter, mm)",[1]; [3],19 mm
same,"sterilization effect at 37[…] (diameter, mm)",[1]; [3],19 mm
"O=S(=O)([O-])[O-].[Na+].[Na+] [sulfate sodium, reference compound]",sterilization effect,[1]; [4],essentially had no effect
"[Na+].[Na+].[O-]c1ccccc1-c1ccccc1[O-] [2,2′-ortho-bisphenol sodium]",inhibition zone diameter,[1]; [4],15 mm
[K+].[K+].[O-]c1cccc(-c2cccc([O-])c2)c1,"sterilization effect without oxygen ventilation (diameter, mm)",[1]; 5% water solution,2 mm
same,"sterilization effect at 25[…] (diameter, mm)",[1]; [3],20 mm
same,"sterilization effect at 37[…] (diameter, mm)",[1]; [3],19 mm
